Measurements reported in ChEMBL document CHEMBL1151603, “Unsymmetrically substituted guanidines as potent histamine H3-receptor antagonists” (Bioorg Med Chem Lett, 1994).

Assays:
Histamine H3 receptor [1] = target: T1, Histamine H3 receptor (Cavia porcellus, UniProt Q9JI35); assay: Antagonistic activity for Histamine H3 receptor on electrically evoked guinea-pig ileum contraction; assay type: functional, tissue-based
Histamine H3 receptor [2] = target: T1, Histamine H3 receptor; assay: Antagonistic activity for Histamine H3 receptor binding in guinea pig

T1 sequence (Q9JI35 whole entry): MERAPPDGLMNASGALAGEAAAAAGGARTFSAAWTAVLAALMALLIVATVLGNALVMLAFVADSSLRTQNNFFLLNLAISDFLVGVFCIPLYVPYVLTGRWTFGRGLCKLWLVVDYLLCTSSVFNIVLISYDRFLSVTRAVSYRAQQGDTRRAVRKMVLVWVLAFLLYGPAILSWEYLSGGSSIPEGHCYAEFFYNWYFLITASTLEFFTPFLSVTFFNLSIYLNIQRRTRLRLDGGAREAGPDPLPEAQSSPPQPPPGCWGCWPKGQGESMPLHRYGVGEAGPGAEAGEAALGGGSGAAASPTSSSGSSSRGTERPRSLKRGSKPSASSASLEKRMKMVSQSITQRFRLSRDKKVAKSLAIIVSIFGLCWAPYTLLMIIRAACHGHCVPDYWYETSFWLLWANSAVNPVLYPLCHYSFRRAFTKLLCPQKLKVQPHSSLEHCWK

Structure (SMILES) | Ki (Histamine H3 receptor [1]) [nM] | Ki (Histamine H3 receptor [2]) [nM]
N=C(NCCc1ccccc1)NCCc1cnc[nH]1 | 100 | 110
CC(C)(C)OC(=O)N/C(=N/CC1CCCCC1)NCCCc1c[nH]cn1 | 10 | 9.5
CCOC(=O)N/C(=N/CC1CCCCC1)NCCCc1c[nH]cn1 | 39.8 | 36
N#CN=C(NCCCc1cnc[nH]1)NCC1CCCCC1 | 20 | 22
N=C(NCCCc1c[nH]cn1)NCc1ccc(I)cc1 | 1.58 | 1.6
S=C(NC1CCCCC1)N1CCC(c2cnc[nH]2)CC1 [THIOPERAMIDE] | 3.98 | –

Next, values leading:

Ki (Histamine H3 receptor [1]) [nM] | Ki (Histamine H3 receptor [2]) [nM] | Structure (SMILES)
5.01 | 5.01 | N=C(NCCCCc1c[nH]cn1)NC1CCCCC1
6.31 | 7 | CC(C)(C)OC(=O)N/C(=N/C1CCCCC1)NCCCCc1c[nH]cn1
0.794 | 0.74 | N=C(NCCCc1c[nH]cn1)NCC1CCCCC1
12.6 | 12 | CC(C)(C)OC(=O)N/C(=N\CCCc1c[nH]cn1)NCc1ccc(I)cc1
12.6 | 13 | O=C(N/C(=N/CC1CCCCC1)NCCCc1c[nH]cn1)OCc1ccccc1
